Paper PMC2377083, “IDN 5390: an oral taxane candidate for protracted treatment schedules” (British Journal of Cancer, 2003)
≈ marks a conversion by molar mass, not a printed value. Where “and” joins values, the source holds several entries; their conditions need not be identical. Identical values can stand only once.

How the values were obtained:
[1] = test system: INT.ACP/PTX PTX-resistant ovarian tumour xenograft; assay: Antitumour activity on INT.ACP/PTX xenograft; conditions: p.o.
Method: (§1) All the experiments were carried out using female athymic nude CD-1 mice, 8–11 weeks old (Charles River, Calco, Italy). The mice were maintained in laminar flow rooms with constant temperature and humidity.
(§2) Taxanes were dissolved by adding absolute ethanol and Cremophor ELP (both 5% of the final volume), in that sequence, on a magnetic stirrer. […] After dilution, the drug solutions were always kept on ice. […] (Milano, Italy) and, just before use, it was diluted, by slowly adding 0.9% NaCl and occasionally stirring the solution (final Polysorbate 80: 10%, v v^−1). […] When higher doses were to be given, larger volumes were injected.
(§3) Tumour lines were maintained in vivo by successive s.c. transplants of tumour fragments in animal flanks.
(§4) For chemotherapy experiments, tumour fragments (about 2 × 2 × 2 mm), obtained from tumour lines, were implanted s.c. Each control or drug-treated group included five or six mice bearing bilateral s.c. tumours. Tumours were implanted on day 0, and tumour growth was followed by biweekly measurements of tumour diameters with a vernier caliper. Tumour weight (TW) was calculated according to the formula: TW (mg)=tumour volume (mm^3)=d^2 × D/2, where d and D are the shortest and the longest diameter, respectively. Different treatment routes (i.v., s.c. or p.o.) and schedules (daily or intermittent) were investigated. […] Control mice were injected with the solvent solution.
(§5) Experimental groups were eliminated when mean TW was about 1.5±0.5 g, or after 100 days.
(§6) For statistical analysis, tumour weights in different groups of treated mice were compared on day of TWI% evaluation, by Student's t-test (two-tailed). P⩽0.05 was considered significant.
(§7) The tolerability of the compound was assessed in tumour-bearing mice as follows: (a) lethal toxicity, that is, any death in treated mice without or with small (⩽300 mg) tumours, or occurring before any control death; (b) body weight loss % (BWL%)=100–(BW on day x/BW on day 1 × 100), where x represents a day after or during the treatment period. The maximal BWL values are reported; and (c) vesicant toxicity defined as the appearance of ulcers and/or inflammation at the injection site where the drugs were delivered s.c.

bFGF = bFGF expression in GBM cells, immunoblotting; conditions: 72 h at IC80: IDN 5390 40, PTX 17 ng ml^−1
GBM (human glioblastoma) = assay: Antiproliferative activity, GBM (Sulforhodamine B); type: cell-based
Method: Drugs were dissolved in DMSO and freshly diluted in medium before use. The antiproliferative activity was evaluated on A2780 (human ovarian carcinoma) and its derived drug-resistant cell lines (A2780/DX, A2780/DDP), IGROV-1/Pt1 (human ovarian carcinoma), GBM (human glioblastoma) and MX-1 (human mammary carcinoma). All cell lines, except MX-1, were maintained in RPMI 1640 (Bio-Whittaker, Verviers, Belgium) supplemented with 10% fetal calf serum (Life Technologies, Gaithersburg, MD, USA). MX-1 cells were maintained in McCoy's medium (Life Technologies, Gaithersburg, MD, USA) supplemented with 10% fetal calf serum. For experiments, all cell lines were seeded into six-well plates in duplicate and treated, 24 or 72 h (only MX-1 cells) after seeding, with solvent or different concentrations of taxanes. Adherent cells were counted 72 h after the beginning of treatment, by a cell counter (Coulter Electronics, Luton, UK) or detected by the Sulforhodamine B colorimetric assay (only GBM cells). The IC50 was defined as the drug concentration causing a 50% decrease in cell number over that of untreated controls.

[2] = test system: A2780/DDP ovarian tumour xenograft; assay: Antitumour activity on A2780/DDP xenograft; conditions: for Tox/Tot: toxic deaths/total mice
Method: as §1, §2, §3, §4, §5, §6, §7

[3] = test system: IGROV-1 PTX-resistant ovarian tumour xenograft; assay: Antitumour activity on IGROV-1 xenograft; conditions: p.o., qd × 5/w × 3w, 120 mg kg^−1
Method: as §1, §2, §3, §4, §5, §6, §7

[4] = qd × 5/w × 2w, 2 × 120 mg kg^−1
[5] = s.c., qd × 5/w × 2w, 120 mg kg^−1

SMILES: CC(=O)O[C@@]1([C@@H]2/C(C)=C(/O)C(=O)C3=C(C)[C@@H](OC(=O)[C@H](O)[C@H](CC(C)C)NC(=O)OC(C)(C)C)C[C@@](O)([C@H]2OC(=O)c2ccccc2)C3(C)C)CO[C@@H]1CCO [IDN 5390, 13-(N-Boc-β-isobutylisoserinyl)-10β-dehydro-C-seco-10-deacetylbaccatin III]
- LCK (1 g) ([1]; qd × 5/w × 2w, 180 mg kg^−1): 1.9
- Max BWL (%) ([1]; qd × 5/w × 2w, 180 mg kg^−1): 10%
- Tox/Tot ([1]; qd × 5/w × 2w, 180 mg kg^−1): 2/5
- TWI% (day 27) ([1]; qd × 5/w × 2w, 180 mg kg^−1, P<0.05 vs 2 × 90 mg kg^−1): 96% and 96 ^* %
- LCK (1 g) [1, 4]: 1.4
- Max BWL (%) [1, 4]: 15%
- TWI% (day 27) [1, 4]: 87%
- Tox/Tot [1, 4]: 1/5
- LCK (1 g) ([1]; qd × 5/w × 3w, 2 × 90 mg kg^−1): 0.8
- Max BWL (%) ([1]; qd × 5/w × 3w, 2 × 90 mg kg^−1): 9%
- TWI% (day 27) ([1]; qd × 5/w × 3w, 2 × 90 mg kg^−1): 66%
- Tox/Tot ([1]; qd × 5/w × 3w, 2 × 90 mg kg^−1): 0/6
- bFGF expression (bFGF): downregulated
- IC50 (GBM (human glioblastoma); 72 h treatment, Sulforhodamine B assay, mean±s.d., three experiments): 0.0129 ± 0.0024 µg/mL (≈ 0.0164 µM)
- IC80 (GBM (human glioblastoma); GBM cells, read-out: IC80 (equitoxic concentration)): 0.04 µg/mL (≈ 0.0508 µM)
- LCK (1 g) ([2]; i.v., q4d × 4, 90 mg kg^−1): 0.2
- Max BWL (%) ([2]; i.v., q4d × 4, 90 mg kg^−1): 0%
- Max TWI% ([2]; i.v., q4d × 4, 90 mg kg^−1, day 18, start at tumour weight about 100 mg): 17 (18) %
- Tox/Tot ([2]; i.v., q4d × 4, 90 mg kg^−1): 0/5
- LCK (1 g) ([2]; i.v., q4d × 4, 120 mg kg^−1): 0.3
- Max BWL (%) ([2]; i.v., q4d × 4, 120 mg kg^−1): 3%
- Max TWI% ([2]; i.v., q4d × 4, 120 mg kg^−1, day 18): 46 (18) %
- Tox/Tot ([2]; i.v., q4d × 4, 120 mg kg^−1): 0/5
- LCK (1 g) [2, 5]: 1.8
- Max BWL (%) [2, 5]: 2.5%
- Max TWI% ([2]; s.c., qd × 5/w × 2w, 120 mg kg^−1, day 27): 92 (27) %
- Tox/Tot [2, 5]: 0/5
- LCK (1 g) [3]: 2.2
- Max BWL (%) [3]: 13%
- TWI% (day 27) [3]: 73%
- Tox/Tot [3]: 0/4
